# Columns and labels:
# Listeria monocytogenes [1] = experiment: Antimicrobial activity against Listeria monocytogenes 1.10753 assessed as absence bacterial growth measured after 18 to 24 hrs incubation by NCCLS method; assay type: functional; conditions: time 18-24 hrs
# [2] = Cytotoxicity against mouse RAW264.7 cells assessed as cell survival rate measured after 8 hrs by MTT assay; assay type: toxicity, cell-based
# Salmonella typhimurium [3] = experiment: Antimicrobial activity against Salmonella typhimurium C7731 assessed as bacterial killing measured after 16 hrs incubation; assay type: functional, Salmonella enterica subsp. enterica serovar Typhimurium; conditions: Salmonella enterica
# Erythrocyte = experiment: Hemolytic activity in human RBC at effective concentration measured after 1 hr by microplate reader analysis; assay type: toxicity, cell-based
# [4] = system: Staphylococcus epidermidis; experiment: Antimicrobial activity against Staphylococcus epidermidis 12228 assessed as absence bacterial growth measured after 18 to 24 hrs incubation by NCCLS method; assay type: functional; conditions: time 18-24 hrs
# Escherichia coli [5] = experiment: Antimicrobial activity against Escherichia coli 25922 assessed as absence bacterial growth measured after 18 to 24 hrs incubation in presence of MgCl2 by NCCLS method; assay type: functional; conditions: time 18-24 hrs
# Escherichia coli [6] = experiment: Antimicrobial activity against Escherichia coli 25922 assessed as absence bacterial growth measured after 18 to 24 hrs incubation in presence of NH4Cl by NCCLS method; assay type: functional; conditions: time 18-24 hrs
# Bacillus cereus [7] = experiment: Antimicrobial activity against Bacillus cereus 1.932 assessed as bacterial killing measured after 16 hrs incubation; assay type: functional
# Acinetobacter baumannii [8] = experiment: Antimicrobial activity against Acinetobacter baumannii 1.6769 assessed as absence bacterial growth measured after 18 to 24 hrs incubation by NCCLS method; assay type: functional; conditions: time 18-24 hrs
# Escherichia coli [9] = experiment: Antimicrobial activity against Escherichia coli 25922 assessed as absence bacterial growth measured after 18 to 24 hrs incubation in presence of 25% serum by NCCLS method; assay type: functional; conditions: time 18-24 hrs
# Escherichia coli [10] = experiment: Antimicrobial activity against Escherichia coli 25922 assessed as absence bacterial growth measured after 18 to 24 hrs incubation in presence of FeCl3 by NCCLS method; assay type: functional; conditions: time 18-24 hrs
# Escherichia coli [11] = experiment: Antimicrobial activity against Escherichia coli K88 assessed as absence bacterial growth measured after 18 to 24 hrs incubation by NCCLS method; assay type: functional; conditions: time 18-24 hrs
# [12] = Hemolytic activity in human RBC at effective concentration at 128 uM measured after 1 hr by microplate reader relative to control; assay type: toxicity, cell-based, Erythrocyte; conditions: human red blood cells (erythrocytes), read-out: Activity
# Acinetobacter baumannii [13] = experiment: Antimicrobial activity against Acinetobacter baumannii 1.6769 assessed as bacterial killing measured after 16 hrs incubation; assay type: functional
# Staphylococcus aureus [14] = experiment: Antimicrobial activity against Methicillin-resistant Staphylococcus aureus 43300 assessed as absence bacterial growth measured after 18 to 24 hrs incubation by NCCLS method; assay type: functional; conditions: time 18-24 hrs
# [15] = Antimicrobial activity against Salmonella pullorum C7913 assessed as bacterial killing measured after 16 hrs incubation; assay type: functional, Salmonella enterica subsp. enterica serovar Pullorum; conditions: Salmonella enterica
# Staphylococcus aureus [16] = experiment: Antimicrobial activity against Staphylococcus aureus 29213 assessed as bacterial killing measured after 16 hrs incubation; assay type: functional
# Escherichia coli [17] = experiment: Antimicrobial activity against Escherichia coli 25922 assessed as absence bacterial growth measured after 18 to 24 hrs incubation in presence of KCl by NCCLS method; assay type: functional; conditions: time 18-24 hrs
# Staphylococcus aureus [18] = experiment: Antimicrobial activity against Methicillin-resistant Staphylococcus aureus 43300 assessed as bacterial killing measured after 16 hrs incubation; assay type: functional
# Listeria monocytogenes [19] = experiment: Antimicrobial activity against Listeria monocytogenes 1.10753 assessed as bacterial killing measured after 16 hrs incubation; assay type: functional
# Escherichia coli [20] = experiment: Antimicrobial activity against Escherichia coli K88 assessed as bacterial killing measured after 16 hrs incubation; assay type: functional
# Salmonella typhimurium [21] = experiment: Antimicrobial activity against Salmonella typhimurium C7731 assessed as absence bacterial growth measured after 18 to 24 hrs incubation by NCCLS method; assay type: functional, Salmonella enterica subsp. enterica serovar Typhimurium; conditions: Salmonella enterica, time 18-24 hrs
# Escherichia coli [22] = experiment: Antimicrobial activity against Escherichia coli 25922 assessed as absence bacterial growth measured after 18 to 24 hrs incubation in presence of ZnCl2 by NCCLS method; assay type: functional; conditions: time 18-24 hrs
# Staphylococcus aureus [23] = experiment: Antimicrobial activity against Staphylococcus aureus 29213 assessed as absence bacterial growth measured after 18 to 24 hrs incubation by NCCLS method; assay type: functional; conditions: time 18-24 hrs
# Pseudomonas aeruginosa [24] = experiment: Antimicrobial activity against Pseudomonas aeruginosa 27853 assessed as bacterial killing measured after 16 hrs incubation; assay type: functional
# Escherichia coli [25] = experiment: Antimicrobial activity against Escherichia coli 25922 assessed as absence bacterial growth measured after 18 to 24 hrs incubation by NCCLS method; assay type: functional; conditions: time 18-24 hrs
# Escherichia coli [26] = experiment: Antimicrobial activity against Escherichia coli 25922 assessed as absence bacterial growth measured after 18 to 24 hrs incubation in presence of 50% serum by NCCLS method; assay type: functional; conditions: time 18-24 hrs
# Staphylococcus aureus [27] = experiment: Antimicrobial activity against Staphylococcus aureus 25923 assessed as bacterial killing measured after 16 hrs incubation; assay type: functional
# [28] = system: Staphylococcus epidermidis; experiment: Antimicrobial activity against Staphylococcus epidermidis 12228 assessed as bacterial killing measured after 16 hrs incubation; assay type: functional
# Escherichia coli [29] = experiment: Antimicrobial activity against Escherichia coli 25922 assessed as absence bacterial growth measured after 18 to 24 hrs incubation in presence of NaCl by NCCLS method; assay type: functional; conditions: time 18-24 hrs
# [30] = Cytotoxicity against human HEK-293T cells assessed as cell survival rate at 64 uM measured after 8 hrs by MTT assay relative to control; assay type: toxicity, cell-based; conditions: read-out: Activity
# Enterococcus faecalis [31] = experiment: Antimicrobial activity against Enterococcus faecalis 29212 assessed as absence bacterial growth measured after 18 to 24 hrs incubation by NCCLS method; assay type: functional; conditions: time 18-24 hrs
# Escherichia coli [32] = experiment: Antimicrobial activity against Escherichia coli 25922 assessed as bacterial killing measured after 16 hrs incubation; assay type: functional
# [33] = Cytotoxicity against porcine IPEC-J2 cells assessed as cell survival rate measured after 8 hrs by MTT assay; assay type: toxicity, cell-based, Sus scrofa; conditions: pig
# Enterococcus faecalis [34] = experiment: Antimicrobial activity against Enterococcus faecalis 29212 assessed as bacterial killing measured after 16 hrs incubation; assay type: functional
# [35] = Antimicrobial activity against Salmonella pullorum C7913 assessed as absence bacterial growth measured after 18 to 24 hrs incubation by NCCLS method; assay type: functional, Salmonella enterica subsp. enterica serovar Pullorum; conditions: Salmonella enterica, time 18-24 hrs
# Escherichia coli [36] = experiment: Antimicrobial activity against Escherichia coli 25922 assessed as absence bacterial growth measured after 18 to 24 hrs incubation in presence of 12.5% serum by NCCLS method; assay type: functional; conditions: time 18-24 hrs
# [37] = Cytotoxicity against porcine IPEC-J2 cells assessed as cell survival rate at 64 uM measured after 8 hrs by MTT assay relative to control; assay type: toxicity, cell-based, Sus scrofa; conditions: pig, read-out: Activity
# [38] = Cytotoxicity against human HEK-293T cells assessed as cell survival rate measured after 8 hrs by MTT assay; assay type: toxicity, cell-based
# [39] = Cytotoxicity against mouse RAW264.7 cells assessed as cell survival rate at 32 to 64 uM measured after 8 hrs by MTT assay relative to control; assay type: toxicity, cell-based; conditions: dose 32-64 µM, read-out: Activity
# Pseudomonas aeruginosa [40] = experiment: Antimicrobial activity against Pseudomonas aeruginosa 27853 assessed as absence bacterial growth measured after 18 to 24 hrs incubation by NCCLS method; assay type: functional; conditions: time 18-24 hrs
# Bacillus cereus [41] = experiment: Antimicrobial activity against Bacillus cereus 1.932 assessed as absence bacterial growth measured after 18 to 24 hrs incubation by NCCLS method; assay type: functional; conditions: time 18-24 hrs
# Staphylococcus aureus [42] = experiment: Antimicrobial activity against Staphylococcus aureus 29213 assessed as absence bacterial growth measured after 18 to 24 hrs incubation by NCCLS m; assay type: functional; conditions: time 18-24 hrs
# Salmonella typhimurium [43] = experiment: Antimicrobial activity against Salmonella typhimurium 14028 assessed as bacterial killing measured after 16 hrs incubation; assay type: functional, Salmonella enterica subsp. enterica serovar Typhimurium; conditions: Salmonella enterica
# Salmonella typhimurium [44] = experiment: Antimicrobial activity against Salmonella typhimurium 14028 assessed as absence bacterial growth measured after 18 to 24 hrs incubation by NCCLS method; assay type: functional, Salmonella enterica subsp. enterica serovar Typhimurium; conditions: Salmonella enterica, time 18-24 hrs
substance,measurement,setting,value
H-GKLWLKGGKLWLKGAKLWLKG-NH2,MIC,Listeria monocytogenes [1],> 32 µM
same,IC50 at 8 h,[2],> 64 µM
same,MBC,Salmonella typhimurium [3],8 µM
same,HC10,Erythrocyte,> 128 µM
same,MIC,[4],4 µM
same,MIC,Escherichia coli [5],8 µM
same,MIC,Escherichia coli [6],2 µM
same,MBC,Bacillus cereus [7],4 µM
same,MIC,Acinetobacter baumannii [8],2 µM
same,MIC,Escherichia coli [9],> 32 µM
same,MIC,Escherichia coli [10],2 µM
same,MIC,Escherichia coli [11],1 µM
same,"hemolysis at 1 h, 128 µM",[12],< 10%
same,MBC,Acinetobacter baumannii [13],2 µM
same,MIC,Staphylococcus aureus [14],2 µM
same,MBC,[15],2 µM
same,MBC,Staphylococcus aureus [16],4 µM
same,MIC,Escherichia coli [17],2 µM
same,MBC,Staphylococcus aureus [18],4 µM
same,MBC,Listeria monocytogenes [19],> 32 µM
same,MBC,Escherichia coli [20],1 µM
same,MIC,Salmonella typhimurium [21],4 µM
same,MIC,Escherichia coli [22],2 µM
same,MIC,Staphylococcus aureus [23],4 µM
same,MBC,Pseudomonas aeruginosa [24],8 µM
same,MIC,Escherichia coli [25],2 µM
same,MIC,Escherichia coli [26],> 32 µM
same,MBC,Staphylococcus aureus [27],4 µM
same,MBC,[28],4 µM
same,MIC,Escherichia coli [29],16 µM
same,"viability at 8 h, 64 µM",[30],> 80%
same,MIC,Enterococcus faecalis [31],4 µM
same,MBC,Escherichia coli [32],2 µM
same,IC50 at 8 h,[33],> 64 µM
same,MBC,Enterococcus faecalis [34],4 µM
same,MIC,[35],1 µM
same,MIC,Escherichia coli [36],32 µM
same,"viability at 8 h, 64 µM",[37],> 80%
same,IC50 at 8 h,[38],> 64 µM
same,"viability at 8 h, up to 64 µM",[39],60%
same,MIC,Pseudomonas aeruginosa [40],4 µM
same,MIC,Bacillus cereus [41],4 µM
same,MIC,Staphylococcus aureus [42],4 µM
same,MBC,Salmonella typhimurium [43],4 µM
same,MIC,Salmonella typhimurium [44],4 µM
H-GKLWLKGGKLWLKGGKLWLKG-NH2,MIC,Listeria monocytogenes [1],> 32 µM
same,IC50 at 8 h,[2],> 64 µM
same,MBC,Salmonella typhimurium [3],8 µM
same,HC10,Erythrocyte,> 128 µM
same,MIC,[4],> 32 µM
same,MIC,Escherichia coli [5],16 µM
same,MIC,Escherichia coli [6],4 µM
same,MBC,Bacillus cereus [7],> 32 µM
same,MIC,Acinetobacter baumannii [8],8 µM
same,MIC,Escherichia coli [9],> 32 µM
same,MIC,Escherichia coli [10],4 µM
same,MIC,Escherichia coli [11],1 µM
same,"hemolysis at 1 h, 128 µM",[12],< 10%
same,MBC,Acinetobacter baumannii [13],8 µM
same,MIC,Staphylococcus aureus [14],> 32 µM
same,MBC,[15],2 µM
same,MBC,Staphylococcus aureus [16],> 32 µM
same,MIC,Escherichia coli [17],4 µM
same,MBC,Staphylococcus aureus [18],> 32 µM
same,MBC,Listeria monocytogenes [19],> 32 µM
same,MBC,Escherichia coli [20],2 µM
same,MIC,Salmonella typhimurium [21],4 µM
same,MIC,Escherichia coli [22],4 µM
same,MIC,Staphylococcus aureus [23],> 32 µM
same,MBC,Pseudomonas aeruginosa [24],16 µM
same,MIC,Escherichia coli [25],4 µM
same,MIC,Escherichia coli [26],> 32 µM
same,MBC,Staphylococcus aureus [27],> 32 µM
same,MBC,[28],> 32 µM
same,MIC,Escherichia coli [29],> 32 µM
same,"viability at 8 h, 64 µM",[30],> 80%
same,MIC,Enterococcus faecalis [31],> 32 µM
same,MBC,Escherichia coli [32],8 µM
same,IC50 at 8 h,[33],> 64 µM
same,MBC,Enterococcus faecalis [34],> 32 µM
same,MIC,[35],1 µM
same,MIC,Escherichia coli [36],> 32 µM
same,"viability at 8 h, 64 µM",[37],> 80%
same,IC50 at 8 h,[38],> 64 µM
same,MIC,Pseudomonas aeruginosa [40],8 µM
same,MIC,Bacillus cereus [41],> 32 µM
same,MIC,Staphylococcus aureus [42],> 32 µM
same,MBC,Salmonella typhimurium [43],4 µM
same,MIC,Salmonella typhimurium [44],2 µM

# Reference: ChEMBL document CHEMBL5518215, “Unlocking Antibacterial Potential: Key-Site-Based Regulation of Antibacterial Spectrum of Peptides” (J Med Chem, 2024)
